Source: paper PMC5072635 (PLoS ONE, 2016)
≈ marks a conversion by molar mass, not a printed value. Where “and” joins values, the source holds several entries; their conditions need not be identical. Equal values may be shown once. Read-outs that look alike come from different tables or passages of the source.

What was measured:
[1] = cited from earlier work
total AKT microclusters = assay: TIRF microscopy of AKT microcluster formation in APBTs; assay type: cell-based, human
Protocol: (§1) APBTs were stimulated in the presence of 0.1% ethanol control or 10 μg/ml GML with plate-bound anti-CD3 on glass coverslips, fixed with 4% paraformaldehyde, permeabilized with 0.25% Triton-X, and stained as described below. To detect microcluster formation of TCR signaling proteins, antibodies specific for LAT pY226 (BD Pharmingen), PLC-γ pY783 (Cell Signaling, and total AKT (Cell signaling) were incubated with fixed and permeabilized cells overnight for 4°C. Subsequently, conjugated secondary antibodies Dylight Goat anti-rabbit IgG and DyLight 568 Goat anti-rabbit IgG (Biolegend) as well as Alexa Fluor 488 goat anti-mouse IgG1 (Thermo Fisher) were incubated with the cells at room temperature for 2 hours. All images were captured by the Leica AM TIRF MC system using 100x magnification oil immersion objective lens at room temperature at the University of Iowa Central Microscopy Research Facility.
(§2) TIRF microscopy images were processed and analyzed using ImageJ. Quantification of membrane clustering was done by measuring mean pixel intensity in the […] of cells for 60 cells total from at least 3 independent experiments. Similar quantification methods have been used in other published reports.
(§3) (A). […] Pixel intensities of median axis of each cell in images obtained in (A) were quantified and averaged using ImageJ. […]

IL-2 production = assay: ELISA of TCR-induced IL-2 production by APBTs; assay type: cell-based, human
Protocol: (§4) The cells were then stimulated with plate-bound 2 μg/ml of anti-CD3 (Biolegend) for 24 hours. Protein concentrations of IL-2, IFN-γ, IL-10, and TNF-α in the media supernatants were measured by standard TMB ELISA.
(§5) Cells were plated on 2 μg/ml anti-CD3 coated plates for 24 hours. Extracellular cytokine production for (A) IFN-γ, (B) IL-2, (C) IL-10, or (D) TNFα was measured by ELISA in 3 independent experiments with different human donors. To statistically confirm that GML is suppressing cytokine production without serum, Student t’s test was done by comparing EtOH treated groups with GML treated groups under the same serum free environment, indicated by the black bars, with # denoting p<0.05.

IFN-γ production = assay: ELISA of TCR-induced IFN-γ production by APBTs; assay type: cell-based, human
Protocol: as §4
(§6) Cells were plated on 2 μg/ml anti-CD3 coated plates for 24 hours. Extracellular cytokine production for (A) IFN-γ, (B) IL-2, (C) IL-10, or (D) TNFα was measured by ELISA in 3 independent experiments with different human donors.

LAT pY226 microclusters = assay: TIRF microscopy of LAT microcluster formation in APBTs; assay type: cell-based, human
Protocol: as §1, §2, §3

IL-10 production = assay: ELISA of TCR-induced IL-10 production by APBTs; assay type: cell-based, human
Protocol: as §4, §6

[2] = tested on: AKT phosphorylation at threonine 308 and serine 473; assay: TCR-induced AKT phosphorylation by immunoblotting in APBTs; assay type: cell-based, human
Protocol: The cells were then incubated on ice with 2 μg/ml anti-CD3 for 30 minutes. […] Cells were then lysed with 2X sample buffer, heated to 95°C, and sonicated.
Cell lysates were separated by polyacrylamide gel electrophoresis and transferred to PVDF. The membranes were blocked in 0.5X SEA BLOCK blocking buffer diluted in PBS. Primary antibodies were incubated overnight at 4°C. Secondary antibodies were incubated with the membrane for 30 minutes at room temperature and then imaged using Licor Odyssey (Lincoln, NE, USA). At least four independent replicates with different human donors were performed for each experiment. Immunoblot band intensity was quantified using Odyssey’s v3.0 software with the intensity of the phospho-specific antibody normalized to the intensity of the GAPDH antibody. To minimize variability between human donors, band intensities were further normalized to maximal band intensity of ethanol vehicle control. The following antibodies were used for immunoblotting: AKT pThr 308 (Cell Signaling), AKT pS473 (Invitrogen), GAPDH (Meridian Life Sciences), and IRDye 800CW or IRDye680-conjugated secondary antibodies (Thermo Scientific).
Cells were stimulated by crosslinking 2 μg/ml of anti-CD3 for various times. Phosphorylation of AKT at threonine 308 and serine 473 were assessed by immunoblotting.

[3] = target: T1, rabbit serum albumin (RSA) (Oryctolagus cuniculus, UniProt P49065); assay: Isothermal titration calorimetry with rabbit serum albumin; assay type: binding
T1 construct: purchased Sigma Aldrich
Protocol: (§7) Supplementary file pone.0165083.s001.pdf: S1 Fig ITC curves of GML with various mammalian albumins. 150μM of GML was injected incrementally into the sample chamber containing 5μM of mammalian albumins. […] (PDF) Click here for additional data file.

[4] = target: T2, bovine serum albumin (BSA) (Bos taurus, UniProt P02769); assay: Isothermal titration calorimetry with bovine serum albumin; assay type: binding
T2 construct: purchased Sigma Aldrich
Protocol: as §7

[5] = tested on: PLC-γ1 pY783 microclusters; assay: TIRF microscopy of PLC-γ1 microcluster formation in APBTs; assay type: cell-based, human
Protocol: as §1, §2, §3

TNF-α production = assay: ELISA of TCR-induced TNF-α production by APBTs; assay type: cell-based, human
Protocol: as §4, §5

pig serum albumin (PSA) = target: T3, pig serum albumin (PSA) (Sus scrofa, UniProt P08835); assay: Isothermal titration calorimetry with pig serum albumin; assay type: binding
T3 construct: purchased Sigma Aldrich
Protocol: as §7

HSA = tested on: HSA
Protocol: (§8) All samples were degassed, and ITC was performed at room temperature as previously described using MicroCal VP-ITC calorimeter. […] The data were analyzed using a single-site binding model provided in the ITC analysis software package. […] The values for ΔH, Kd and stoichiometry averaged ± standard deviation. […] The values for stoichiometry and binding affinity were derived from the ITC experiments.
While the presence of other ligands would increase the proportion of free floating GML unbound to albumin, we assumed there were no other albumin ligands present in the system to simplify our calculations.
(PDF) Click here for additional data file.

[6] = target: human serum albumin (HSA) (Homo sapiens, UniProt P02768); assay: Isothermal titration calorimetry with human serum albumin; conditions: for ΔH: room temperature, pH 7.4
Protocol: as §8
150 μM of ethanol solubilized GML was placed in the syringe and injected into the sample chamber twenty one times with 180 seconds interval between injections.

[7] = target: T4, mouse serum albumin (MSA) (Mus musculus, UniProt P07724); assay: Isothermal titration calorimetry with mouse serum albumin; assay type: binding
T4 construct: purchased Sigma Aldrich
Protocol: as §7

[8] = GML doses 10 μg/ml or greater, absence of serum albumin, anti-CD3 24 hours
[9] = 10 μg/ml GML, serum free media, significant at 5 and 15 minutes post stimulation
[10] = ITC, single-site model, 5 μM albumin, 150 μM ligand

Chain of human serum albumin (HSA) (P02768 25-609): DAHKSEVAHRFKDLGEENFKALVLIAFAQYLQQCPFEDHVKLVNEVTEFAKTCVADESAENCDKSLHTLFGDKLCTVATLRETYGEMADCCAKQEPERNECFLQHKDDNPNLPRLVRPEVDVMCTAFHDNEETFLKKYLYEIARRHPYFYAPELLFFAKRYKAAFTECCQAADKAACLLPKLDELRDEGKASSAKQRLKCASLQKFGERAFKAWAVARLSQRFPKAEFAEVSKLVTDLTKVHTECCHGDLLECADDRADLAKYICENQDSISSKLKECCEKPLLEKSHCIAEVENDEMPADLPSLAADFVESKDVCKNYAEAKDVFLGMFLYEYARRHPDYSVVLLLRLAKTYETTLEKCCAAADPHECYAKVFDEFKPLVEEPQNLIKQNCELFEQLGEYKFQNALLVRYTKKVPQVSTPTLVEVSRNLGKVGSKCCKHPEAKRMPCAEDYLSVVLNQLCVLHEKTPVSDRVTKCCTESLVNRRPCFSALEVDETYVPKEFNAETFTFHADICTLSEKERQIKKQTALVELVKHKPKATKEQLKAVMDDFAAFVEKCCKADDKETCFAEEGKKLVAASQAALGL
T1 sequence (P49065 25-608): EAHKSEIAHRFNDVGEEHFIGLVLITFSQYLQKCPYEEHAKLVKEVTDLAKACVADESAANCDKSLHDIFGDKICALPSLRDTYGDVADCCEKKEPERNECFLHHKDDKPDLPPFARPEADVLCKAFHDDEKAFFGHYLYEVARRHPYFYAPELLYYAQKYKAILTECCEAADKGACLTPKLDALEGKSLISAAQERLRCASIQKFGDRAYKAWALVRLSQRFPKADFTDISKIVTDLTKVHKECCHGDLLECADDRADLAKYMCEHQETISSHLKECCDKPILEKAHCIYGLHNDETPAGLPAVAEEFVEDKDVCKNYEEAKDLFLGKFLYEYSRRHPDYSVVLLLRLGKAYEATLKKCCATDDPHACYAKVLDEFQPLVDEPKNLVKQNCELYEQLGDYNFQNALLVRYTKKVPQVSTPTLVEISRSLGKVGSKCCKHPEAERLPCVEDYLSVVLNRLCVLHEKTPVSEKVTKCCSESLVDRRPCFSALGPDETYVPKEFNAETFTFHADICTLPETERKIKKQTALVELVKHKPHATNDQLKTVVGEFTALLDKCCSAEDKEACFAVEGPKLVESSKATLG
T2 sequence (P02769 25-607): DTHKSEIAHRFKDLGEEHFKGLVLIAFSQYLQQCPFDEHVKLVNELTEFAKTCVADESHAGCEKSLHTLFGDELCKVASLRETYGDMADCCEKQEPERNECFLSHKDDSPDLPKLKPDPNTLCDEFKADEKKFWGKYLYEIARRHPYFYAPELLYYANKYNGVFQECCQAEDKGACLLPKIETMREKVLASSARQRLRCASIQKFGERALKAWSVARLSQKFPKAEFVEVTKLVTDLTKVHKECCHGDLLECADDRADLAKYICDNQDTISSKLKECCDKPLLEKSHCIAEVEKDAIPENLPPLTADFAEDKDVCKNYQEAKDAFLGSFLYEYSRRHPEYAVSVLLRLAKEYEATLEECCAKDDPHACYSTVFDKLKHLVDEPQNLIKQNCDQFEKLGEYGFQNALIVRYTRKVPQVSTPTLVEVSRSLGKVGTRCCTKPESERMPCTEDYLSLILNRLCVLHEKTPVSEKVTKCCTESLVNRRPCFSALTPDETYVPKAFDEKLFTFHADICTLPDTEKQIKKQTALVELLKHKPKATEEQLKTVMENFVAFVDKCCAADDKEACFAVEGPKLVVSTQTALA
T3 sequence (P08835 25-607): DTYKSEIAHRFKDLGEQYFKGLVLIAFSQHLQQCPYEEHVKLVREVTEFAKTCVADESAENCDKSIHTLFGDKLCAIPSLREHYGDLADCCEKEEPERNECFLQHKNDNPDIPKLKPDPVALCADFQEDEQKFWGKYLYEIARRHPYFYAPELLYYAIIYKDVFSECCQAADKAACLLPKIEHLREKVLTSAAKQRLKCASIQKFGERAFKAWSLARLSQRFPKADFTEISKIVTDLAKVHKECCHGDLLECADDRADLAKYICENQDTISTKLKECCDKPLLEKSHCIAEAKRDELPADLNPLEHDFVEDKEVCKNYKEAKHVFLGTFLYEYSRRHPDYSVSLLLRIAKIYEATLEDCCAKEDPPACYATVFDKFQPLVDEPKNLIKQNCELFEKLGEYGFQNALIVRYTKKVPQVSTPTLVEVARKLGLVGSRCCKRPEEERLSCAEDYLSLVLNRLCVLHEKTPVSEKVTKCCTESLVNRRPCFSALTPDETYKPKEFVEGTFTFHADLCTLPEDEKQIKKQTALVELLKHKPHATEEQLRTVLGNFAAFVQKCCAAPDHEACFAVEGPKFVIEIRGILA
T4 sequence (P07724 25-608): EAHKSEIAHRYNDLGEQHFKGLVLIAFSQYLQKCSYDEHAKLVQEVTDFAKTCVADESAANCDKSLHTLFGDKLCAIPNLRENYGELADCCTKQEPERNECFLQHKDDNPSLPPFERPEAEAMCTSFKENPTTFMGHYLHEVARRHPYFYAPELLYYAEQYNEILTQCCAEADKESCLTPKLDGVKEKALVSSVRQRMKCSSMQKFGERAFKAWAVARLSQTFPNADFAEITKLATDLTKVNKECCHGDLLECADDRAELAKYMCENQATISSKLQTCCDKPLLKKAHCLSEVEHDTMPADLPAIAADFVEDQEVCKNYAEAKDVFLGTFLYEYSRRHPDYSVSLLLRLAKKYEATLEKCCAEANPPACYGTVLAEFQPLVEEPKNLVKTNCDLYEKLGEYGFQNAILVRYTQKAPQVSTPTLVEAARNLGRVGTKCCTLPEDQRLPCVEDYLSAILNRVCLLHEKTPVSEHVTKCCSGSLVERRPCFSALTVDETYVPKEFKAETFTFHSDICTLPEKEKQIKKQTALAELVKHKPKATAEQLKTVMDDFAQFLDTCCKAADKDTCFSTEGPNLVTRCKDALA

CCCCCCCCCCCC(=O)OCC(O)CO (stereo not shown) [GML, Glycerol monolaurate]
aqueous solubility cap ([1]; aqueous, under 37°C, stated as a fact, no reference printed for it): 0.1 mg/mL (≈ 364 µM)
solubility in gel formulations ([1]; topical GML in gel formulations ref [3],[19]): up to 50 mg/ml
AKT clustering (total AKT microclusters; 10 μg/ml GML alone): inhibits
AKT clustering in GML treated cells (total AKT microclusters; 10 μg/ml GML with 1% HSA): relieves this inhibition
IL-2 production vs GML in serum free media (IL-2 production; 10 μg/ml GML, 2% and 1% HSA): significantly increased
IL-2 production vs GML in serum free conditions (IL-2 production; 20 μg/ml GML, all HSA doses): did not have significantly increased
IL-2 production vs ethanol control (IL-2 production; [8]): significantly reduced
IFN-γ production vs GML treatment alone (IFN-γ production; 1% or 0.2% HSA, 10 μg/ml GML): significant restoration
IFN-γ production vs GML treatment alone (IFN-γ production; 2% HSA, both GML doses (10 and 20 μg/ml)): significantly restored
IFNγ production vs ethanol control (IFN-γ production; [8]): significantly reduced
LAT microcluster formation in GML treated cells (LAT pY226 microclusters; 10 μg/ml GML in 1% HSA, to levels similar to ethanol and HSA controls): significantly increased
LAT clustering at the membrane (LAT pY226 microclusters; 10 μg/ml GML, serum free media): drastically decreased
IL-10 production vs control APBTs (IL-10 production; 10 μg/ml GML, all doses of HSA): significantly increased
IL-10 production vs GML in serum free media (IL-10 production; 20 μg/ml GML, all concentrations of HSA tested): did not restore
IL-10 production vs ethanol control (IL-10 production; [8]): significantly reduced
AKT T308 phosphorylation vs GML alone ([2]; 10 μg/ml GML in 1% HSA, 5 and 15 minutes post stimulation): significantly increased
AKT S473 phosphorylation vs GML alone ([2]; 10 μg/ml GML in 1% HSA, 15 minutes post stimulation): significantly increased
phosphorylation of both AKT residues (T308, S473) post stimulation vs GML treated cells ([2]; 10 μg/ml GML in 1% HSA, below levels in ethanol control): modest increase
AKT S473 phosphorylation vs ethanol control [2, 9]: drastically suppressed
AKT T308 phosphorylation vs ethanol control [2, 9]: drastically suppressed
Kd [3]: 5.4 ± 1.3 µM
ΔH ([3]; ITC, single-site model, RSA): -18.8 ± 2.55 kJ/mol
Kd [4]: 2.2 ± 1.1 µM
ΔH ([4]; ITC, single-site model, BSA): -18.8 ± 3.22 kJ/mol
PLC-γ1 clustering ([5]; 10 μg/ml GML alone): inhibits
PLC-γ1 clustering in GML treated cells ([5]; 10 μg/ml GML with 1% HSA): relieves this inhibition
TNF-α production vs GML in serum free media (TNF-α production; 10 and 20 μg/ml GML, all concentrations of HSA): significantly increased
TNFα production vs ethanol control (TNF-α production; [8]): significantly reduced
Kd (pig serum albumin (PSA)): 4.5 ± 1.6 µM
ΔH (pig serum albumin (PSA); ITC, single-site model, PSA): -8.37 ± 2.64 kJ/mol
GML molecules bound to HSA (HSA; 10 and 20 μg/ml GML, all HSA concentrations, no other ligands assumed): > 90%
GML bound to albumin (HSA; low-albumin sites (urine, vaginal secretions, CSF etc.), GML doses less than 20 μg/ml): mostly bound
albumin bound to GML (HSA; lymphatic fluid, albumin 40% to 90% of the serum concentration): > 99%
GML molecules bound to albumin (HSA; plasma albumin 35 to 50 g/L, concentrations where GML is soluble, Kd 1.4 μM): > 99%
concentration of GML-HSA complexes relative to free GML molecules (HSA; skin wound exudate albumin 10 to 30 g/L, GML doses between 500 to 5000 μg/ml): within one order of magnitude
GML molecules bound to HSA (HSA; skin wound exudate albumin 10 to 30 g/L, GML doses greater than 5000 μg/ml): < 2%
GML bound to HSA (HSA; skin wound exudate albumin 10 to 30 g/L, GML doses less than 500 μg/ml): > 90%
ΔH [6, 10]: -12.6 ± 4.6 kJ/mol
Kd ([6]; Kd, ITC, single-site model, 5 μM albumin, 150 μM ligand): ~1.4 µM and 1.4 µM
Kd [7]: 6.3 ± 2.7 µM
ΔH ([7]; ITC, single-site model, MSA): -20.5 ± 4.6 kJ/mol

OCC(O)CO [Glycerol, glycerol]
Kd [6]: > 50 µM
binding reaction with HSA ([6]; ITC, 5 μM HSA, 150 μM glycerol): did not have measurable binding reaction

CCCCCCCCCCCC(=O)O [LA, Lauric acid]
Kd [6, 10]: 4.9 ± 1.1 µM
ΔH [6, 10]: -100 kJ/mol and -100 ± 2.64 kJ/mol
n (stoichiometry) ([6]; ITC, single-site model, ligand:HSA): 1.1 ± 0.4
